Activity calls are given as the source filed them. No cut-off for these calls is given here.
Columns and labels:
[1] = system: Streptomyces acidiscabies; experiment: Antimicrobial activity against Streptomyces acidiscabies ATCC 4900315 assessed as inhibition of aerial mycelial growth at 0.4 ug/disk after 5 days by paper disk method; format: functional; conditions: for zone of inhibition at 0.4 µg/disc: ATCC 4900315, 120 h, read-out: DIZ
[2] = system: Streptomyces acidiscabies; experiment: Antimicrobial activity against Streptomyces acidiscabies ATCC 4900315 assessed as inhibition of aerial mycelial growth at 0.04 ug/disk after 5 days by paper disk method; format: functional
Streptomyces alboniger [3] = experiment: Antimicrobial activity against Streptomyces alboniger IFO 12738 assessed as inhibition of aerial mycelial growth at 0.4 ug/disk after 5 days by paper disk method; format: functional
Streptomyces scabiei [4] = experiment: Antimicrobial activity against Streptomyces scabiei ATCC 4917314 assessed as inhibition of aerial mycelial growth at 0.04 ug/disk after 5 days by paper disk method; format: functional
Streptomyces scabiei [5] = experiment: Antimicrobial activity against Streptomyces scabiei ATCC 4917314 assessed as inhibition of aerial mycelial growth at 4 ug/disk after 5 days by paper disk method; format: functional; conditions: for zone of inhibition at 4 µg/disc: ATCC 4917314, 120 h, read-out: DIZ
Streptomyces alboniger [6] = experiment: Antimicrobial activity against Streptomyces alboniger IFO 12738 assessed as inhibition of aerial mycelial growth at 0.04 ug/disk after 5 days by paper disk method; format: functional, organism-based
[7] = system: Streptomyces acidiscabies; experiment: Antimicrobial activity against Streptomyces acidiscabies ATCC 4900315 assessed as inhibition of aerial mycelial growth at 4 ug/disk after 5 days by paper disk method; format: functional; conditions: for zone of inhibition at 4 µg/disc: ATCC 4900315, 120 h, read-out: DIZ
Streptomyces scabiei [8] = experiment: Antimicrobial activity against Streptomyces scabiei ATCC 4917314 assessed as inhibition of aerial mycelial growth at 0.40 ug/disk after 5 days by paper disk method; format: functional; conditions: for zone of inhibition at 0.4 µg/disc: ATCC 4917314, 120 h, read-out: DIZ
[9] = system: Streptomyces acidiscabies; experiment: Antimicrobial activity against Streptomyces acidiscabies ATCC 4900315 assessed as inhibition of growth at 4 ug/disk after 5 days by paper disk method; format: functional
Streptomyces alboniger [10] = experiment: Antimicrobial activity against Streptomyces alboniger IFO 12738 assessed as inhibition of aerial mycelial growth at 4 ug/disk after 5 days by paper disk method; format: functional
[11] = ATCC 4900315, 120 h, read-out: DIZ

CC1(C)S[C@@H]2[C@H](NC(=O)[C@H](N)c3ccccc3)C(=O)N2[C@H]1C(=O)O [AMPICILLIN]
diameter of the inhibition zone (DIZ) [1]: inactive
diameter of the inhibition zone (DIZ) [2]: inactive
diameter of the inhibition zone (DIZ) (Streptomyces alboniger [3]): inactive
diameter of the inhibition zone (DIZ) (Streptomyces scabiei [4]): inactive
zone of inhibition at 4 µg/disc (Streptomyces scabiei [5]): 16 mm
diameter of the inhibition zone (DIZ) (Streptomyces alboniger [6]): inactive
zone of inhibition at 4 µg/disc [7]: 16 mm
diameter of the inhibition zone (DIZ) (Streptomyces scabiei [8]): inactive
diameter of the inhibition zone (DIZ) [9]: inactive

CN(CC[C@H](N)CC(=O)N[C@H]1CC[C@H](n2ccc(N)nc2=O)O[C@@H]1C(=O)O)C(=N)N [BLASTADIN S]
diameter of the inhibition zone (DIZ) [1]: inactive
diameter of the inhibition zone (DIZ) [2]: inactive
diameter of the inhibition zone (DIZ) (Streptomyces alboniger [10]): inactive
diameter of the inhibition zone (DIZ) (Streptomyces alboniger [3]): inactive
diameter of the inhibition zone (DIZ) (Streptomyces scabiei [4]): inactive
zone of inhibition at 4 µg/disc (Streptomyces scabiei [5]): 23 mm
diameter of the inhibition zone (DIZ) (Streptomyces alboniger [6]): inactive
zone of inhibition at 4 µg/disc [7]: 9 mm
zone of inhibition at 0.4 µg/disc (Streptomyces scabiei [8]): 10 mm

CO[C@@H]1[C@H](O)C[C@@H](O[C@@H]2C[C@H](Oc3cc4cc5c(c(O)c4c(O)c3C)C(=O)[C@@H](O[C@H]3C[C@@H](O[C@H]4C[C@@H](O[C@H]6C[C@](C)(O)[C@@H](OC(C)=O)[C@H](C)O6)[C@H](O)[C@@H](C)O4)[C@H](O)[C@@H](C)O3)[C@H]([C@H](OC)C(=O)[C@@H](O)[C@@H](C)O)C5)O[C@H](C)[C@@H]2OC(C)=O)O[C@@H]1C [CHROMOMYCIN A3]
zone of inhibition at 0.4 µg/disc [1]: 19 mm
zone of inhibition at 0.04 µg/disc [2, 11]: 13 mm
diameter of the inhibition zone (DIZ) (Streptomyces alboniger [10]): inactive
diameter of the inhibition zone (DIZ) (Streptomyces alboniger [3]): inactive
diameter of the inhibition zone (DIZ) (Streptomyces scabiei [4]): inactive
zone of inhibition at 4 µg/disc (Streptomyces scabiei [5]): 11 mm
diameter of the inhibition zone (DIZ) (Streptomyces alboniger [6]): inactive
zone of inhibition at 4 µg/disc [7]: 26 mm
diameter of the inhibition zone (DIZ) (Streptomyces scabiei [8]): inactive

C[C@@H]1O[C@@H]1P(=O)(O)O [FOSFOMYCIN]
diameter of the inhibition zone (DIZ) [1]: inactive
diameter of the inhibition zone (DIZ) [2]: inactive
diameter of the inhibition zone (DIZ) (Streptomyces alboniger [10]): inactive
diameter of the inhibition zone (DIZ) (Streptomyces alboniger [3]): inactive
zone of inhibition at 0.04 µg/disc (Streptomyces scabiei [4]; ATCC 4917314, 120 h, read-out: DIZ): 16 mm
zone of inhibition at 4 µg/disc (Streptomyces scabiei [5]): 17 mm
diameter of the inhibition zone (DIZ) (Streptomyces alboniger [6]): inactive
diameter of the inhibition zone (DIZ) [7]: inactive
zone of inhibition at 0.4 µg/disc (Streptomyces scabiei [8]): 16 mm

N=C(N)NCC(O)CC(O)(C(=O)O)[C@@H]1O[C@@H](N2C=C(CO)C(N)=NC2O)C=C[C@@H]1NC(=O)[C@@H](N)CO (stereo not given in full) [MILDIOMYCIN]
zone of inhibition at 0.4 µg/disc [1]: 11 mm
diameter of the inhibition zone (DIZ) [2]: inactive
diameter of the inhibition zone (DIZ) (Streptomyces alboniger [10]): inactive
diameter of the inhibition zone (DIZ) (Streptomyces alboniger [3]): inactive
diameter of the inhibition zone (DIZ) (Streptomyces scabiei [4]): inactive
diameter of the inhibition zone (DIZ) (Streptomyces scabiei [5]): inactive
diameter of the inhibition zone (DIZ) (Streptomyces alboniger [6]): inactive
zone of inhibition at 4 µg/disc [7]: 28 mm
zone of inhibition at 0.4 µg/disc (Streptomyces scabiei [8]): 12 mm
zone of inhibition at 4 µg/disc [9, 11]: 22 mm

COc1ccc(C[C@H](N)C(=O)N[C@H]2[C@@H](O)[C@H](n3cnc4c(N(C)C)ncnc43)O[C@@H]2CO)cc1 [PUROMYCIN]
diameter of the inhibition zone (DIZ) [1]: inactive
diameter of the inhibition zone (DIZ) [2]: inactive
diameter of the inhibition zone (DIZ) (Streptomyces alboniger [10]): inactive
diameter of the inhibition zone (DIZ) (Streptomyces alboniger [3]): inactive
diameter of the inhibition zone (DIZ) (Streptomyces scabiei [4]): inactive
diameter of the inhibition zone (DIZ) (Streptomyces scabiei [5]): inactive
diameter of the inhibition zone (DIZ) (Streptomyces alboniger [6]): inactive
zone of inhibition at 4 µg/disc [7]: 20 mm
diameter of the inhibition zone (DIZ) (Streptomyces scabiei [8]): inactive
